{"source": "paper PMC11790914", "about": "“Chemogenomics for steroid hormone receptors (NR3)” (Communications Chemistry, 2025)", "key": {"[1]": {"settings": "other targets with annotated bioactivities at ≤10 µM in previously published dataset; cited from earlier work"}, "HEK293T cells [2]": {"system": "HEK293T cells", "assay": "Cytotoxicity: metabolic activity (WST-8 / CCK-8 assay)", "settings": "1 µM; HEK293T, 24 h; WST-8; normalized to 0.1% DMSO; single replicates"}, "[3]": {"system": "NF-κB activity in HEK293 NF-κB reporter cells", "assay": "NF-kB activity assay (GFP reporter, ionomycin/PMA)", "format": "cell-based", "settings": "for Mean NFκB response: n=3", "method": "Fig. 6 Application of the NR3 CG set.\nAfter 24 h, cells were incubated with the test compounds solubilized with 0.1% DMSO in the same medium without puromycin. After 4 h incubation, ionomycin (100 ng/mL) and phorbol-12-myristat-13-acetate (PMA, 10 ng/mL) was added, and the cells were imaged for confluence and GFP expression every 90 min. over 24 h using a Tecan SPARK Cyto (Tecan). The number of GFP expressing cells was normalized to confluence in each sample. Each sample was repeated in three biologically independent experiments."}, "HEK293T cells [4]": {"system": "HEK293T cells", "assay": "Cytotoxicity: apoptosis induction (caspase-3/7 DEVD fluorogenic DNA dye)", "settings": "1 µM; HEK293T, 24 h; apoptotic cell count normalized to 0.1% DMSO; single replicates"}, "[5]": {"system": "ATF6 activity in Hela ATF6 reporter cells", "assay": "Endoplasmic reticulum stress assay (ATF6 Renilla luciferase reporter, tunicamycin)", "format": "cell-based", "settings": "Homo sapiens, HeLa, 1 µM, single replicates n=1 to n=5; read-out: ER stress [rel. ATF6 activity]", "method": "After 24 h, cells were incubated with the test compounds solubilized with 0.1% DMSO in the same medium without puromycin. After 4 h incubation, tunicamycin (100 ng/mL) was added. After another 18 h incubation, cells were assayed for renilla luminescence using DualGlo reagent (Promega) on a Tecan SPARK Cyto (Tecan). Test samples were normalized to the 0.1% DMSO control. Each sample was repeated in five biologically independent experiments."}, "HEK293T cells [6]": {"system": "HEK293T cells", "assay": "Cytotoxicity: growth-rate (change in confluence over 24 h)", "settings": "1 µM, normalized to 0.1% DMSO control, single replicates (n=1...)", "quoted_text": "Cells were incubated with the test compounds at the indicated concentrations solubilized with 0.1% DMSO for 24 h. Growth-rate was determined based on the change in confluence over 24 h normalized to the change in confluence of cells treated with the 0.1% DMSO control (n = 10). Metabolic activity was determined with a water-soluble tetrazolium-8 (WST-8) assay (n = 8) after 24 h treatment. Apoptotic cells were detected with a fluorogenic DNA dye coupled to the caspase-3/7 recognition sequence (DEVD) after 24 h treatment and the apoptotic cell count was normalized to 0.1% DMSO treated cells (n = 6).\nHEK293T cells (German Collection of Microorganisms and Cell Culture GmbH, DSMZ; #ACC305) were cultured in DMEM high glucose, supplemented with 10% fetal calf serum (FCS), sodium pyruvate (1 mM), penicillin (100 µ/mL) and streptomycin (100 µg/mL) at 37 °C and 5% (v/v) CO2, and seeded in pre-coated (10 µg/mL collagen G solution (Merck KgaA; #L7213) for 30 min at 37 °C) 96-well plates (2 × 10^5 cells per well). After 24 h, the cells were treated with the respective NR3 CG compound candidate at the recommended concentration, bexarotene (100 µM) or doxorubicin (30 µM) as positive controls in DMEM high glucose supplemented with 0.1% FCS, penicillin (100 µ/mL), streptomycin (100 µg/mL) and 0.1% DMSO, or 0.1% DMSO alone as an untreated control. Each sample was prepared in at least four biologically independent replicates. […] Thereafter, the medium was aspirated and the cells were incubated for 3 h with 90 µL DMEM high glucose supplemented with 0.2% FCS, penicillin (100 µ/mL) and streptomycin (100 µg/mL) and additionally containing 10 µL Cell Counting Kit 8 solution (CCK-8; MedChemExpress, Monmouth Junction, New York, USA; #HY-K0301), and absorbance was measured at 1 h, 2 h and 3 h of incubation at 450 nm on a Tecan Spark Cyto to assess metabolic activity of the cells. Before drug administration, after the first medium exchange, 24 h after drug administration, and after fluorescence imaging cell confluence was assessed using the Tecan Spark Cyto, to account for changes in cell confluence due to drug administration and cell handling. Compound effects on cell confluence, apoptosis, metabolic activity and necrosis were normalized to the vehicle control of each biological replicate individually."}, "HEK293T cells [7]": {"system": "HEK293T cells", "assay": "Cytotoxicity: necrosis induction (red fluorescent dye for permeable plasma membranes);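 further: compounds applied in DMEM high glucose with 0.1% FCS and 0.1% DMSO, necrotic HEK293T cells counted by red staining of cells whose plasma membranes had become permeable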", "format": "cell-based", "settings": "1 µM, 24 h, necrotic cell count normalized to 0.1% DMSO, single replicates", "quoted_text": "Cells were incubated with the test compounds at the indicated concentrations solubilized with 0.1% DMSO for 24 h. […] Necrotic cells were detected with a red fluorescent dye that labels cells with permeable plasma membranes after 24 h treatment and the necrotic cell count was normalized to 0.1% DMSO treated cells (n = 4). e NR family selectivity profiling of NR3 CG compound candidates in uniform Gal4-hybrid reporter gene assays for selected NR representing the NR1, NR2, NR4 and NR5 families.\nHEK293T cells (German Collection of Microorganisms and Cell Culture GmbH, DSMZ; #ACC305) were cultured in DMEM high glucose, supplemented with 10% fetal calf serum (FCS), sodium pyruvate (1 mM), penicillin (100 µ/mL) and streptomycin (100 µg/mL) at 37 °C and 5% (v/v) CO2, and seeded in pre-coated (10 µg/mL collagen G solution (Merck KgaA; #L7213) for 30 min at 37 °C) 96-well plates (2 × 10^5 cells per well). After 24 h, the cells were treated with the respective NR3 CG compound candidate at the recommended concentration, bexarotene (100 µM) or doxorubicin (30 µM) as positive controls in DMEM high glucose supplemented with 0.1% FCS, penicillin (100 µ/mL), streptomycin (100 µg/mL) and 0.1% DMSO, or 0.1% DMSO alone as an untreated control. Each sample was prepared in at least four biologically independent replicates. […] Before drug administration, after the first medium exchange, 24 h after drug administration, and after fluorescence imaging cell confluence was assessed using the Tecan Spark Cyto, to account for changes in cell confluence due to drug administration and cell handling. Compound effects on cell confluence, apoptosis, metabolic activity and necrosis were normalized to the vehicle control of each biological replicate individually."}}, "note": "“And” between values parts separate entries of the source, which are not always exact repeats. Equal entries are not always repeated."}
{"molecule": "C[C@]12CC[C@@H]3c4ccc(O)cc4CC[C@H]3[C@@H]1CC[C@@H]2O", "note": "[17β-Estradiol]", "values": [{"measurement": "Reason for exclusion: number of annotated off-targets", "setting": "[1]", "value": "> 5", "unit": "off-targets"}]}
{"molecule": "CCC(=C(c1ccc(O)cc1)c1ccc(OCCN(C)C)cc1)c1ccccc1", "note": "[(E,Z)-Hydroxytamoxifen]", "values": [{"measurement": "Reason for exclusion: number of annotated off-targets", "setting": "[1]", "value": "> 5", "unit": "off-targets"}]}
{"molecule": "CC(O)(CS(=O)(=O)c1ccc(F)cc1)C(=O)Nc1ccc(C#N)c(C(F)(F)F)c1", "note": "(centres unmarked) [Bicalutamide]", "values": [{"measurement": "Reason for exclusion: number of annotated off-targets", "setting": "[1]", "value": "> 5", "unit": "off-targets"}]}
{"molecule": "O=c1oc2cc(O)ccc2c2oc3cc(O)ccc3c12", "note": "[Coumestrol]", "values": [{"measurement": "Reason for exclusion: number of annotated off-targets", "setting": "[1]", "value": "> 5", "unit": "off-targets"}]}
{"molecule": "O=c1c(-c2ccc(O)cc2)coc2cc(O)ccc12", "note": "[Daidzein]", "values": [{"measurement": "Reason for exclusion: number of annotated off-targets", "setting": "[1]", "value": "> 5", "unit": "off-targets"}]}
{"molecule": "C[C@]12CCC(=O)C[C@@H]1CC[C@@H]1[C@@H]2CC[C@]2(C)[C@@H](O)CC[C@@H]12", "note": "[Dihydrotestosterone]", "values": [{"measurement": "Reason for exclusion: number of annotated off-targets", "setting": "[1]", "value": "> 5", "unit": "off-targets"}]}
{"molecule": "C/C=C1/C(=O)C[C@H]2[C@@H]3CCC4=CC(=O)CC[C@]4(C)[C@H]3CC[C@]12C", "note": "[E-Guggulsterone]", "values": [{"measurement": "Reason for exclusion: number of annotated off-targets", "setting": "[1]", "value": "> 5", "unit": "off-targets"}]}
{"molecule": "CCN(CC)CCOc1ccc(/C(=C(/Cl)c2ccccc2)c2ccccc2)cc1.Cl", "note": "[Enclomiphene hydrochloride]", "values": [{"measurement": "Reason for exclusion: number of annotated off-targets", "setting": "[1]", "value": "> 5", "unit": "off-targets"}]}
{"molecule": "CNC(=O)c1ccc(N2C(=S)N(c3ccc(C#N)c(C(F)(F)F)c3)C(=O)C2(C)C)cc1F", "note": "[Enzalutamide]", "values": [{"measurement": "Metabolic activity [MA]", "setting": "HEK293T cells [2]", "value": "1.02 and 1.04 and 1.01 (2×) and 0.98 and 1.13"}, {"measurement": "Mean NFκB response", "setting": "[3]; 1 µM, 1,5 h", "value": "4053.16 GFP+-cells/confluence ∙ 1000"}, {"measurement": "Mean NFκB response", "setting": "[3]; 1 µM, 4,5 h", "value": "4748.63 GFP+-cells/confluence ∙ 1000"}, {"measurement": "Mean NFκB response", "setting": "[3]; 1 µM, 7,5 h", "value": "9147.14 GFP+-cells/confluence ∙ 1000"}, {"measurement": "Mean NFκB response", "setting": "[3]; 1 µM, 10,5 h", "value": "19308.05 GFP+-cells/confluence ∙ 1000"}, {"measurement": "Mean NFκB response", "setting": "[3]; 1 µM, 13,5 h", "value": "27440.00 GFP+-cells/confluence ∙ 1000"}, {"measurement": "Mean NFκB response", "setting": "[3]; 1 µM, 16,6 h", "value": "33976.67 GFP+-cells/confluence ∙ 1000"}, {"measurement": "Mean NFκB response", "setting": "[3]; 1 µM, 19,5 h", "value": "37833.33 GFP+-cells/confluence ∙ 1000"}, {"measurement": "Mean NFκB response", "setting": "[3]; 1 µM, 22,5 h", "value": "41216.67 GFP+-cells/confluence ∙ 1000"}, {"measurement": "Mean NFκB response", "setting": "[3]; 1 µM, 3 h", "value": "4315.98 GFP+-cells/confluence ∙ 1000"}, {"measurement": "Mean NFκB response", "setting": "[3]; 1 µM, 6 h", "value": "6007.28 GFP+-cells/confluence ∙ 1000"}, {"measurement": "Mean NFκB response", "setting": "[3]; 1 µM, 9 h", "value": "14317.85 GFP+-cells/confluence ∙ 1000"}, {"measurement": "Mean NFκB response", "setting": "[3]; 1 µM, 12 h", "value": "23650.00 GFP+-cells/confluence ∙ 1000"}, {"measurement": "Mean NFκB response", "setting": "[3]; 1 µM, 15 h", "value": "31096.67 GFP+-cells/confluence ∙ 1000"}, {"measurement": "Mean NFκB response", "setting": "[3]; 1 µM, 18 h", "value": "36023.33 GFP+-cells/confluence ∙ 1000"}, {"measurement": "Mean NFκB response", "setting": "[3]; 1 µM, 21 h", "value": "39446.67 GFP+-cells/confluence ∙ 1000"}, {"measurement": "Mean NFκB response", "setting": "[3]; 1 µM, 24 h", "value": "42106.67 GFP+-cells/confluence ∙ 1000"}, {"measurement": "NF-κB activity (inflammatory response to ionomycin/PMA)", "setting": "[3]; HEK293 NF-κB reporter cells, compounds at recommended concentrations, imaged over 24 h, n = 3", "value": "tended to enhance NF-κB activity"}, {"measurement": "Apoptosis induction [AI]", "setting": "HEK293T cells [4]", "value": "0.86 and 1.10 and 1.13 and 0.75 and 1.01 and 0.84"}, {"measurement": "activity at 1 µM", "setting": "[5]", "value": "99% and 117%"}, {"measurement": "Growth rate [GR]", "setting": "HEK293T cells [6]", "value": "0.61 and 1.23 and 0.75 and 1.17 and 0.84 and 0.95 and 1.00 and 2.30 and 3.82 and 0.45"}, {"measurement": "Necrosis induction [NI]", "setting": "HEK293T cells [7]", "value": "0.88 and 0.97 and 0.94 and 0.81"}]}
{"molecule": "C[C@]12CC[C@@H]3c4ccc(OC(=O)c5ccccc5)cc4CC[C@H]3[C@@H]1CC[C@@H]2O", "note": "[Estradiol benzoate]", "values": [{"measurement": "Reason for exclusion: number of annotated off-targets", "setting": "[1]", "value": "> 5", "unit": "off-targets"}]}
{"molecule": "C[C@]12CC[C@@H]3c4ccc(O)cc4CC[C@H]3[C@@H]1C[C@@H](O)[C@@H]2O", "note": "[Estriol]", "values": [{"measurement": "Reason for exclusion: number of annotated off-targets", "setting": "[1]", "value": "> 5", "unit": "off-targets"}]}
{"molecule": "CC(C)C(=O)Nc1ccc([N+](=O)[O-])c(C(F)(F)F)c1", "note": "[Flutamide]", "values": [{"measurement": "Reason for exclusion: number of annotated off-targets", "setting": "[1]", "value": "> 5", "unit": "off-targets"}]}
{"molecule": "C[C@@H]1C[C@H]2[C@@H]3C[C@H](F)C4=CC(=O)C=C[C@]4(C)[C@@]3(F)[C@@H](O)C[C@]2(C)[C@@]1(OC(=O)c1ccco1)C(=O)SCF", "note": "[Fluticasone furoate]", "values": [{"measurement": "Reason for exclusion: number of annotated off-targets", "setting": "[1]", "value": "> 5", "unit": "off-targets"}]}
{"molecule": "C[C@]12CC[C@H](O)CC1=CC[C@@H]1[C@@H]2CC[C@]2(C)C(n3cnc4ccccc43)=CC[C@@H]12", "note": "[Galeterone]", "values": [{"measurement": "Reason for exclusion: number of annotated off-targets", "setting": "[1]", "value": "> 5", "unit": "off-targets"}]}
{"molecule": "O=c1c(-c2ccc(O)cc2)coc2cc(O)cc(O)c12", "note": "[Genistein]", "values": [{"measurement": "Reason for exclusion: number of annotated off-targets", "setting": "[1]", "value": "> 5", "unit": "off-targets"}]}
{"molecule": "Oc1c(Cl)cc(Cl)c(Cl)c1Cc1c(O)c(Cl)cc(Cl)c1Cl", "note": "[Hexachlorophene]", "values": [{"measurement": "Reason for exclusion: number of annotated off-targets", "setting": "[1]", "value": "> 5", "unit": "off-targets"}]}
{"molecule": "CC(=O)[C@@]1(O)CC[C@H]2[C@@H]3CCC4=CC(=O)CC[C@]4(C)[C@H]3CC[C@@]21C", "note": "[Hydroxyprogesterone]", "values": [{"measurement": "Reason for exclusion: number of annotated off-targets", "setting": "[1]", "value": "> 5", "unit": "off-targets"}]}
{"molecule": "COc1ccc2c(c1)c(CC(=O)O)c(C)n2C(=O)c1ccc(Cl)cc1", "note": "[Indomethacin]", "values": [{"measurement": "Reason for exclusion: number of annotated off-targets", "setting": "[1]", "value": "> 5", "unit": "off-targets"}]}
{"molecule": "CC(=O)O[C@]1(C(C)=O)CC[C@H]2[C@@H]3C[C@H](C)C4=CC(=O)CC[C@]4(C)[C@H]3CC[C@@]21C", "note": "[Medroxyprogesterone acetate]", "values": [{"measurement": "Reason for exclusion: number of annotated off-targets", "setting": "[1]", "value": "> 5", "unit": "off-targets"}]}
{"molecule": "COc1cc([C@@H]2c3cc4c(cc3[C@H](O)[C@H]3COC(=O)[C@H]23)OCO4)cc(OC)c1OC", "note": "[Podophyllotoxin]", "values": [{"measurement": "Reason for exclusion: number of annotated off-targets", "setting": "[1]", "value": "> 5", "unit": "off-targets"}]}
{"molecule": "C[C@]12C=CC(=O)C=C1CC[C@@H]1[C@@H]2[C@@H](O)C[C@@]2(C)[C@H]1CC[C@]2(O)C(=O)CO", "note": "[Prednisolone]", "values": [{"measurement": "Reason for exclusion: number of annotated off-targets", "setting": "[1]", "value": "> 5", "unit": "off-targets"}]}
{"molecule": "CC(=O)[C@H]1CC[C@H]2[C@@H]3CCC4=CC(=O)CC[C@]4(C)[C@H]3CC[C@]12C", "note": "[Progesterone]", "values": [{"measurement": "Reason for exclusion: number of annotated off-targets", "setting": "[1]", "value": "> 5", "unit": "off-targets"}]}
{"molecule": "CC(=O)S[C@@H]1CC2=CC(=O)CC[C@]2(C)[C@H]2CC[C@@]3(C)[C@@H](CC[C@@]34CCC(=O)O4)[C@H]12", "note": "[Spironolactone]", "values": [{"measurement": "Reason for exclusion: number of annotated off-targets", "setting": "[1]", "value": "> 5", "unit": "off-targets"}]}
{"molecule": "CC/C(=C(\\c1ccccc1)c1ccc(OCCN(C)C)cc1)c1ccccc1", "note": "[Tamoxifen]", "values": [{"measurement": "Reason for exclusion: number of annotated off-targets", "setting": "[1]", "value": "> 5", "unit": "off-targets"}]}
{"molecule": "C[C@]12CC[C@H]3[C@@H](CCC4=CC(=O)CC[C@@]43C)[C@@H]1CC[C@@H]2O", "note": "[Testosterone]", "values": [{"measurement": "Reason for exclusion: number of annotated off-targets", "setting": "[1]", "value": "> 5", "unit": "off-targets"}]}
{"molecule": "C[C@]12C=CC(=O)C=C1CC[C@H]1[C@@H]3C[C@@H](O)[C@](O)(C(=O)CO)[C@@]3(C)C[C@H](O)[C@@]12F", "note": "[Triamcinolone]", "values": [{"measurement": "Reason for exclusion: number of annotated off-targets", "setting": "[1]", "value": "> 5", "unit": "off-targets"}]}
